Test results published in PMC8636635 (Communications Biology, 2021).

Target: Protein 3a (Severe acute respiratory syndrome coronavirus 2, UniProt P0DTC3)
Test: two-electrode voltage clamp, X. laevis oocytes
Conditions: read-out: % block at 10 μM

Chain of Protein 3a (P0DTC3 whole entry): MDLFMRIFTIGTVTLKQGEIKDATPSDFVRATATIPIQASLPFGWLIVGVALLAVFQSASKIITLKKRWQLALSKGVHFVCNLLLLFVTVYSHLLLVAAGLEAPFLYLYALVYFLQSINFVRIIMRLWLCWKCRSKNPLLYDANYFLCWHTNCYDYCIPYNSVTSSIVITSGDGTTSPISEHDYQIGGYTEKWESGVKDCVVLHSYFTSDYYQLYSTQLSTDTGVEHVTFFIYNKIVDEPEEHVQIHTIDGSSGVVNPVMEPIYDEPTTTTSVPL

c1ccc2c(c1)Cc1ccccc1O2 [xanthene]
inhibition at 10 µM: 20%
